Key:
[1] = system: patients with symptomatic heart failure; test: Human clinical trial: cardiac assessments and changes in patient therapy; format: in vivo
Text: (§1) Cardiac assessments that included blood pressure, pulse, sodium retention score (general assessment of a patient's edematous state was derived from the summation of scores obtained from Table I), NYHA classification, and
All statistical methods were two-sided.

[2] = system: patients with symptomatic heart failure; test: Human clinical trial: clinical laboratory values (neurohormones, hematology, biochemistry); conditions: for PRA (plasma renin activity), Week 12 mean change: Week 12 vs baseline, with stable ACE inhibitor and loop diuretic
[3] = system: patients with symptomatic heart failure; test: Human clinical trial: incidence of adverse events, intent-to-treat cohort; format: in vivo
[4] = system: myocardial fibrosis in animal models; conditions: cited from earlier work
[5] = system: patients afflicted with congestive heart failure; conditions: 100 mg/day coadministered with an ACE inhibitor; cited from earlier work
[6] = system: patients with symptomatic heart failure; test: Human clinical trial: change in weight and vital signs; format: in vivo
Text: Laboratory Measurements: The following information was obtained from each patient at baseline:
as §1
All statistical methods were two-sided.

refractory CHF = conditions: 50 mg/day to 100 mg/day (average 73 mg/day) in combination with captopril; cited from earlier work
[7] = system: patients with symptomatic heart failure; test: Human clinical trial: hospitalizations and deaths; format: in vivo
Text: A breakdown of the hospitalizations is as follows:

[8] = system: patients with symptomatic heart failure; test: Human clinical trial: incidence and predictors of hyperkalemia (Cox regression); conditions: type of ACE-I as predictor; step-wise Cox regression; patients on spironolactone or placebo
Text: In this, analysis, the risk ratio can be thought of as the probability that the patient with the risk factor will develop hyperkalemia, relative to the probability that a patient without the risk factor will develop it.

CC(=O)S[C@@H]1CC2=CC(=O)CC[C@]2(C)[C@H]2CC[C@@]3(C)[C@@H](CC[C@@]34CCC(=O)O4)[C@H]12 [Spironolactone, 17-hydroxy-7α-mercapto-3-oxo-17α-pregn-4-ene-21-carboxylic acid γ-lactone acetate]
Sodium retention score, dose response ([1]; Day 9, p=0.019, not seen at later visits): higher doses showing more reduction in sodium retention score | Changes in loop diuretic therapy ([1]; Week 8, p=0.004, not observed at Week 12): more patients on the higher doses of spironolactone had decreases in the loop diuretic dose compared to the placebo group | NYHA Class ([1]; spironolactone groups vs placebo): the difference was not statistically significant | PRA (plasma renin activity), Week 12 mean change ([2]; 12.5 mg/d): 9.90 NgAngl/L/s | PRA (plasma renin activity), Week 12 mean change ([2]; 25 mg/d): 9.33 NgAngl/L/s | PRA (plasma renin activity), Week 12 mean change ([2]; 50 mg/d): 13.18 NgAngl/L/s | PRA (plasma renin activity), Week 12 mean change ([2]; 75 mg/d): 10.23 NgAngl/L/s | Change from baseline in PRA, dose response ([2]; Day 9, Week 4 and Week 12, P≦0.001): higher doses of spironolactone associated with greater increases in PRA | N-Terminal ANF change from baseline ([2]; all active treatments, all treatment visits): decreases from baseline | Change from baseline in serum potassium, dose response ([2]; all treatment period visits, p<0.001): Higher doses of spironolactone were associated with larger increases in potassium | Urinary aldosterone excretion, dose response ([2]; baseline to 12 week visit, p=0.002): Greater increases were seen at higher doses | Incidence of URT infection ([3]; 12.5 mg): 4.9 Percentage of Patients | Incidence of abdominal pain ([3]; 12.5 mg): 7.3 Percentage of Patients | Incidence of angina pectoris ([3]; 12.5 mg): 19.5 Percentage of Patients | Incidence of arthralgia ([3]; 12.5 mg): 4.9 Percentage of Patients | Incidence of coughing ([3]; 12.5 mg): 4.9 Percentage of Patients | Incidence of diarrhea ([3]; 12.5 mg): 4.9 Percentage of Patients | Incidence of dizziness ([3]; 12.5 mg): 12.2 Percentage of Patients | Incidence of dyspnea ([3]; 12.5 mg): 22.0 Percentage of Patients | Incidence of fatigue ([3]; 12.5 mg): 12.2 Percentage of Patients | Incidence of headache ([3]; 12.5 mg): 9.8 Percentage of Patients | Incidence of hyperkalemia (adverse event) ([3]; 12.5 mg): 2.4 Percentage of Patients | Incidence of nausea ([3]; 12.5 mg): 2.4 Percentage of Patients | Incidence of URT infection ([3]; 25 mg): 11.1 Percentage of Patients | Incidence of abdominal pain ([3]; 25 mg): 8.9 Percentage of Patients | Incidence of angina pectoris ([3]; 25 mg): 20.0 Percentage of Patients | Incidence of arthralgia ([3]; 25 mg): 4.4 Percentage of Patients | Incidence of coughing ([3]; 25 mg): 2.2 Percentage of Patients | Incidence of diarrhea ([3]; 25 mg): 22.2 Percentage of Patients | Incidence of dizziness ([3]; 25 mg): 13.3 Percentage of Patients | Incidence of dyspnea ([3]; 25 mg): 15.6 Percentage of Patients | Incidence of fatigue ([3]; 25 mg): 13.3 Percentage of Patients | Incidence of headache ([3]; 25 mg): 2.2 Percentage of Patients | Incidence of hyperkalemia (adverse event) ([3]; 25 mg): 8.9 Percentage of Patients | Incidence of nausea ([3]; 25 mg): 17.8 Percentage of Patients | Incidence of URT infection ([3]; 50 mg): 8.7 Percentage of Patients | Incidence of abdominal pain ([3]; 50 mg): 13.0 Percentage of Patients | Incidence of angina pectoris ([3]; 50 mg): 8.7 Percentage of Patients | Incidence of arthralgia ([3]; 50 mg): 8.7 Percentage of Patients | Incidence of coughing ([3]; 50 mg): 4.3 Percentage of Patients | Incidence of diarrhea ([3]; 50 mg): 8.7 Percentage of Patients | Incidence of dizziness ([3]; 50 mg): 13.0 Percentage of Patients | Incidence of dyspnea ([3]; 50 mg): 26.1 Percentage of Patients | Incidence of fatigue ([3]; 50 mg): 15.2 Percentage of Patients | Incidence of headache ([3]; 50 mg): 15.2 Percentage of Patients | Incidence of hyperkalemia (adverse event) ([3]; 50 mg): 15.2 Percentage of Patients | Incidence of nausea ([3]; 50 mg): 6.5 Percentage of Patients | Incidence of URT infection ([3]; 75 mg): 2.4 Percentage of Patients | Incidence of abdominal pain ([3]; 75 mg): 7.3 Percentage of Patients | Incidence of angina pectoris ([3]; 75 mg): 14.6 Percentage of Patients | Incidence of arthralgia ([3]; 75 mg): 4.9 Percentage of Patients | Incidence of coughing ([3]; 75 mg): 2.4 Percentage of Patients | Incidence of diarrhea ([3]; 75 mg): 14.6 Percentage of Patients | Incidence of dizziness ([3]; 75 mg): 17.1 Percentage of Patients | Incidence of dyspnea ([3]; 75 mg): 24.4 Percentage of Patients | Incidence of fatigue ([3]; 75 mg): 14.6 Percentage of Patients | Incidence of headache ([3]; 75 mg): 7.3 Percentage of Patients | Incidence of hyperkalemia (adverse event) ([3]; 75 mg): 19.5 Percentage of Patients | Incidence of nausea ([3]; 75 mg): 19.5 Percentage of Patients | Effect on myocardial fibrosis [4]: prevents myocardial fibrosis | Patients in whom treatment was highly effective [5]: 13 of 16 | Change in mean systolic and diastolic blood pressure (standing and supine) ([6]; 25 mg, 50 mg and 75 mg groups, all visits): decreases in mean systolic and diastolic blood pressure | Mean change in weight from baseline to Week 12 ([6]; 50 mg/d, Week 12, with stable ACE inhibitor and loop diuretic): 0.62 (2.05) | Change from baseline in body weight, dose response ([6]; 75 mg dose group, Day 9 and Week 4): more weight loss than other patients | Control of refractory CHF (refractory CHF): effective to control refractory CHF without serious incidents of hyperkalemia | Hospitalizations, number of patients ([7]; 12.5 mg): 3 Patients | Hospitalizations, percent of patients ([7]; 12.5 mg): (7.3%) | Hospitalizations, number of patients ([7]; 25 mg): 3 Patients | Hospitalizations, percent of patients ([7]; 25 mg): (6.6%) | Hospitalizations, number of patients ([7]; 50 mg): 13 Patients | Hospitalizations, percent of patients ([7]; 50 mg): (27.6%) | Hospitalizations, number of patients ([7]; 75 mg): 6 Patients | Hospitalizations, percent of patients ([7]; 75 mg): (14.6%) | Deaths within 30 days after the study was completed ([7]; patients previously at the 50 mg dose): Three patients died within 30 days after the study was completed

C[C@H](CS)C(=O)N1CCC[C@H]1C(=O)O [Captopril, captopril]
Risk ratio of hyperkalemia, captopril vs other ACE-I [8]: about one-third

— patent US20030148960A1, “Combination therapy of angiotensin converting enzyme inhibitor and side-effect-reduced amount of aldosterone antagonist for treatment of cardiovascular disease” (G.D. Searle & Co., priority 1995, published 2003)
